For this experiment, the target named is T1, IDO1 (Homo sapiens, UniProt P14902).
T1 construct: endogenous in cells; host or cells: HeLa cells (ATCC), IFNgamma-induced
Nature of the experiment: IDO1 cell-based assay (HeLa cells, IFNgamma-induced, N-formylkynurenine/L-tryptophan by RFMS). To be noted: 10 ng/mL IFNgamma, 24 hours. The procedure, abridged: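 N-formylkynurenine and tryptophan peak areas in media measured by RFMS (C18, isocratic, d-Trp standard), giving IC50 values by regression. Source: HeLa cells incubated 24 h with IFNgamma (10 ng/mL) plus test compound at 0.5% DMSO; parallel CellTiter-Glo viability read.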

T1 sequence (P14902 whole entry): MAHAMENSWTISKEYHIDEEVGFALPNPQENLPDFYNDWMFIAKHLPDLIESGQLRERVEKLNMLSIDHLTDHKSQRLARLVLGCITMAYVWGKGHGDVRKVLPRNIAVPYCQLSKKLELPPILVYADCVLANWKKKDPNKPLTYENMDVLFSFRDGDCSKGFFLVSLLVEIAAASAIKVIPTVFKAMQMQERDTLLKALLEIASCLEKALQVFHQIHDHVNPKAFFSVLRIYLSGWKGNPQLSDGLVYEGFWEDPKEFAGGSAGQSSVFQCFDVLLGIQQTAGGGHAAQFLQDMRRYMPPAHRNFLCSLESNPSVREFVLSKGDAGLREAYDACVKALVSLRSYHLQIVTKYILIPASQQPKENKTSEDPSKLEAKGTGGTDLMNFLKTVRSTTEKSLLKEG

`CCC(NC(=O)c1ccc(Cl)cc1)C1C2CC(OCC3CCOCC3)CC21` [Compound 96, 4-chloro-N-(1-((1R,3s,5S,6r)-3-((tetrahydro-2H-pyran-4-yl)methoxy)bicyclo[3.1.0]hexan-6-yl)propyl)benzamide] returned an IC50 of less than 200 nM.
Then `COCC(NC(=O)c1ccc(Cl)cc1)[C@H]1[C@@H]2C[C@@H](n3cc(C4CC4)nn3)C[C@@H]21` (stereo partly drawn) [Compound 173, 4-chloro-N-(1-((1R,3s,5S,6r)-3-(4-cyclopropyl-1H-1,2,3-triazol-1-yl)bicyclo[3.1.0]hexan-6-yl)-2-methoxyethyl)benzamide], with less than 200 nM; and `CCC(NC(=O)c1ccc(Cl)cc1)[C@H]1[C@@H]2C[C@@H](N3CCOCC3)C[C@@H]21` (stereo partly drawn) [Compound 73, 4-chloro-N-(1-((1R,3s,5S,6r)-3-morpholinobicyclo[3.1.0]hexan-6-yl)propyl)benzamide], with 2000 to 5000 nM.
The compound `CCC(NC(=O)c1ccc(Cl)cc1)[C@H]1[C@@H]2C[C@@H](N=[N+]=[N-])C[C@@H]21` (stereo partly drawn) [Compound 90, N-(1-((1R,3s,5S,6r)-3-azidobicyclo[3.1.0]hexan-6-yl)propyl)-4-chlorobenzamide] registered an IC50 of 200 to 2000 nM.
The value for `CCC(NC(=O)c1ccc(Cl)cc1)[C@H]1[C@@H]2C[C@@H](Oc3cccnc3Cl)C[C@@H]21` (stereo partly drawn) [Compound 60, 4-chloro-N-(1-((1R,3s,5S,6r)-3-((2-chloropyridin-3-yl)oxy)bicyclo[3.1.0]hexan-6-yl)propyl)benzamide] was less than 200 nM; that for `CC(NC(=O)c1ccc(Cl)cc1)[C@H]1[C@@H]2C[C@@H](Oc3ncnc4ccc(F)cc34)C[C@@H]21` (stereo partly drawn) [Compound 13, 4-chloro-N-(1-((1R,3s,5S,6r)-3-((6-fluoroquinazolin-4-yl)oxy)bicyclo[3.1.0]hexan-6-yl)ethyl)benzamide] was less than 200 nM.
Then `O=C(NC1C2CN(c3ccnc4ccc(F)cc34)CC21)C(O)c1ccc(Br)cc1` (stereo not shown) [Compound 111, 2-(4-bromophenyl)-N-(3-(6-fluoroquinolin-4-yl)-3-azabicyclo[3.1.0]hexan-6-yl)-2-hydroxyacetamide], with greater than 5000 nM; and `CCC(NC(=O)c1ccc(Cl)cc1)[C@H]1[C@@H]2C[C@@H](Oc3ccnc(C)c3F)C[C@@H]21` (stereo partly drawn) [Compound 93, 4-chloro-N-(1-((1R,3s,5S,6r)-3-((3-fluoro-2-methylpyridin-4-yl)oxy)bicyclo[3.1.0]hexan-6-yl)propyl)benzamide], with less than 200 nM; and `N#Cc1cccc(C(=O)NC[C@@H]2[C@H]3C[C@H](n4cnc5cc(F)c(F)cc54)C[C@@H]23)c1` [Compound 321, 3-cyano-N-(((1R,3s,5S,6r)-3-(5,6-difluoro-1H-benzo[d]imidazol-1-yl)bicyclo[3.1.0]hexan-6-yl)methyl)benzamide], with 200 to 2000 nM.
Then `CN(C(=O)Cc1ccc(Cl)cc1)[C@H]1[C@@H]2C[C@@H](Oc3cnnc4ccccc34)C[C@@H]21` [Compound 86, 2-(4-chlorophenyl)-N-((1R,3s,5S,6r)-3-(cinnolin-4-yloxy)bicyclo[3.1.0]hexan-6-yl)-N-methylacetamide], with 2000 to 5000 nM.
As to `CCC(NC(=O)c1ccc(Cl)cc1)[C@H]1[C@@H]2C[C@@H](Oc3nc(C)ncc3F)C[C@@H]21` (stereo partly drawn) [Compound 52, 4-chloro-N-(1-((1R,3s,5S,6r)-3-((5-fluoro-2-methylpyrimidin-4-yl)oxy)bicyclo[3.1.0]hexan-6-yl)propyl)benzamide], the IC50 is less than 200 nM.
Then `CC[C@@H](NC(=O)NC1CC1)[C@H]1[C@@H]2C[C@@H](n3cnc4cc(F)c(F)cc43)C[C@@H]21` [Compound 357, 1-cyclopropyl-3-((R)-1-((1R,3S,5S,6r)-3-(5,6-difluoro-1H-benzo[d]imidazol-1-yl)bicyclo[3.1.0]hexan-6-yl)propyl)urea], with 200 to 2000 nM; and `CC[C@@H](NC(=O)c1ccc(F)cc1)[C@H]1[C@@H]2C[C@@H](n3cnc4cc(F)c(F)cc43)C[C@@H]21` [Compound 306, N—((R)-1-((3S,6s)-3-(5,6-difluoro-1H-benzo[d]imidazol-1-yl)bicyclo[3.1.0]hexan-6-yl)propyl)-4-fluorobenzamide], with less than 200 nM; and `Cn1cc(C(=O)NC[C@@H]2[C@H]3C[C@H](n4cnc5cc(F)c(F)cc54)C[C@@H]23)cn1` [Compound 319, N-(((1R,3s,5S,6r)-3-(5,6-difluoro-1H-benzo[d]imidazol-1-yl)bicyclo[3.1.0]hexan-6-yl)methyl)-1-methyl-1H-pyrazole-4-carboxamide], with greater than 5000 nM.
The value for `CCC(NC(=O)c1ccc(Cl)cc1)[C@H]1[C@@H]2C[C@@H](Nc3ncnc4ccc(F)cc34)C[C@@H]21` (stereo partly drawn) [Compound 123, 4-chloro-N-(1-((1R,3s,5S,6r)-3-((6-fluoroquinazolin-4-yl)amino)bicyclo[3.1.0]hexan-6-yl)propyl)benzamide] was less than 200 nM.
In the case of `CCC(NC(=O)c1ccc(Cl)cc1)[C@H]1[C@@H]2C[C@@H](n3nncc3CO)C[C@@H]21` (stereo partly drawn) [Compound 155, 4-chloro-N-(1-((1R,3s,5S,6r)-3-(5-(hydroxymethyl)-1H-1,2,3-triazol-1-yl)bicyclo[3.1.0]hexan-6-yl)propyl)benzamide], the half-maximal inhibitory concentration (IC50) lay within 200 to 2000 nM.
The value for `CCC(NC(=O)c1ccc(Cl)cc1)[C@H]1[C@@H]2C[C@@H](Oc3ccc(F)nc3)C[C@@H]21` (stereo partly drawn) [Compound 18, 4-chloro-N-(1-((1R,3s,5S,6r)-3-((6-fluoropyridin-3-yl)oxy)bicyclo[3.1.0]hexan-6-yl)propyl)benzamide] was less than 200 nM.
Then `O=C(NC[C@@H]1[C@H]2C[C@H](n3cnc4cc(F)c(F)cc43)C[C@@H]12)c1ccc(F)cc1` [Compound 314, N-(((1R,3s,5S,6r)-3-(5,6-difluoro-1H-benzo[d]imidazol-1-yl)bicyclo[3.1.0]hexan-6-yl)methyl)-4-fluorobenzamide], with less than 200 nM.
The value for `CCC(NC(=O)c1ccc(Cl)cc1)[C@H]1[C@@H]2C[C@@H](n3ncc4ccncc43)C[C@@H]21` (stereo partly drawn) [Compound 174, N-(1-((1R,3s,5S,6r)-3-(1H-pyrazolo[3,4-c]pyridin-1-yl)bicyclo[3.1.0]hexan-6-yl)propyl)-4-chlorobenzamide] was less than 200 nM.
Take `CCC(NC(=O)c1ccc(Cl)cc1)[C@H]1[C@@H]2C[C@@H](n3cnnc3C3CC3)C[C@@H]21` (stereo partly drawn) [Compound 172, 4-chloro-N-(1-((1R,3s, 5S, 6r)-3-(3-cyclopropyl-4H-1,2,4-triazol-4-yl)bicyclo[3.1.0]hexan-6-yl)propyl)benzamide]: the half-inhibitory concentration (IC50) fell in the range of 200 to 2000 nM.
Then `CCC(NC(=O)c1ccc(Cl)cc1)[C@H]1[C@@H]2C[C@@H](Oc3ncccc3F)C[C@@H]21` (stereo partly drawn) [Compound 39, 4-chloro-N-(1-((1R,3s,5S,6r)-3-((3-fluoropyridin-2-yl)oxy)bicyclo[3.1.0]hexan-6-yl)propyl)benzamide], with less than 200 nM.
Then `CC[C@@H](NC(=O)c1ccc(Cl)cc1)[C@H]1[C@@H]2C[C@@H](n3cc(C4CC4)cn3)C[C@@H]21` [Compound 348, 4-chloro-N-((R)-1-((1R,3S,5S,6r)-3-(4-cyclopropyl-1H-pyrazol-1-yl)bicyclo[3.1.0]hexan-6-yl)propyl)benzamide], with less than 200 nM; and `CC(NC(=O)c1ccc(C#N)cc1)C1[C@H]2CC(O)C[C@@H]12` (stereo partly drawn) [Compound 105, 4-cyano-N-(1-((1R,3r,5S,6r)-3-hydroxybicyclo[3.1.0]hexan-6-yl)ethyl)benzamide], with greater than 5000 nM; and `CC[C@@H](NC(=O)c1cccc(Cl)c1)[C@H]1[C@@H]2C[C@@H](n3cnc4cc(F)c(F)cc43)C[C@@H]21` [Compound 310, 3-chloro-N-((R)-1-((1R,3S,5S,6r)-3-(5,6-difluoro-1H-benzo[d]imidazol-1-yl)bicyclo[3.1.0]hexan-6-yl)propyl)benzamide], with less than 200 nM.
The compound `O=C(Cc1ccc(Cl)cc1)N[C@H]1[C@@H]2C[C@@H](Oc3ncnc4ccc(F)cc34)C[C@@H]21` [Compound 61, 2-(4-chlorophenyl)-N-((1R,3s,5S,6r)-3-((6-fluoroquinazolin-4-yl)oxy)bicyclo[3.1.0]hexan-6-yl)acetamide] registered an IC50 of less than 200 nM.
As for `CC[C@@H](NC(=O)c1ccnc(C)c1)[C@H]1[C@@H]2C[C@@H](n3cnc4cc(F)c(F)cc43)C[C@@H]21` [Compound 308, N-((R)-1-((1R,3S,5S,6r)-3-(5,6-difluoro-1H-benzo[d]imidazol-1-yl)bicyclo[3.1.0]hexan-6-yl)propyl)-2-methylisonicotinamide], the concentration for half-maximal inhibition (IC50) was in the range of 200 to 2000 nM.
Regarding `CCOC(=O)CC(NC(=O)c1ccc(Cl)cc1)[C@H]1[C@@H]2C[C@@H](Oc3ncnc4ccc(F)cc34)C[C@@H]21` (stereo partly drawn) [Compound 134, ethyl 3-(4-chlorobenzamido)-3-((1R,3s,5S,6r)-3-((6-fluoroquinazolin-4-yl)oxy)bicyclo[3.1.0]hexan-6-yl)propanoate], the IC50 was less than 200 nM.
The value for `CCC(NC(=O)c1ccc(Cl)cc1)[C@H]1[C@@H]2C[C@@H](Oc3cc(F)ccc3F)C[C@@H]21` (stereo partly drawn) [Compound 42, 4-chloro-N-(1-((1R,3s,5S,6r)-3-(2,5-difluorophenoxy)bicyclo[3.1.0]hexan-6-yl)propyl)benzamide] was less than 200 nM; that for `O=C(NC[C@@H]1[C@H]2CN(c3ncnc4ccc(F)cc34)C[C@@H]12)c1ccc(Cl)cc1` [Compound 280, 4-chloro-N-(((1R,5S,6s)-3-(6-fluoroquinazolin-4-yl)-3-azabicyclo[3.1.0]hexan-6-yl)methyl)benzamide] was 200 to 2000 nM.
The value for `CCC(NC(=O)c1ccc(Cl)cc1)[C@H]1[C@@H]2C[C@H](O)C[C@@H]21` (stereo partly drawn) [Compound 1, 4-chloro-N-(1-((1R,3r,5S,6r)-3-hydroxybicyclo[3.1.0]hexan-6-yl)propyl)benzamide] was 2000 to 5000 nM.
Then `COc1ccc(C(=O)NC(C)[C@H]2[C@@H]3C[C@@H](O)C[C@@H]32)cn1` (stereo partly drawn) [Compound 128, N-(1-((1R,3s,5S,6r)-3-hydroxybicyclo[3.1.0]hexan-6-yl)ethyl)-6-methoxynicotinamide], with greater than 5000 nM.

These data come from patent US11173145B2, “Compounds useful as inhibitors of indoleamine 2,3-dioxygenase and/or tryptophan dioxygenase” (Board of Regents, The University of Texas System, priority 2017, dated 2021).
